From patent US11427552B2, “Heterocyclic compounds useful in the treatment of disease” (EPIGEN BIOSCIENCES, INC., priority 2013, dated 2022) come the findings set out here.

pIC50: −log10 of the molar value. Values joined by “and” are separate entries in the source; they are usually repeats but may differ in a detail not shown here. Equal values may be shown once.

T1 sequence (Q92633 whole entry): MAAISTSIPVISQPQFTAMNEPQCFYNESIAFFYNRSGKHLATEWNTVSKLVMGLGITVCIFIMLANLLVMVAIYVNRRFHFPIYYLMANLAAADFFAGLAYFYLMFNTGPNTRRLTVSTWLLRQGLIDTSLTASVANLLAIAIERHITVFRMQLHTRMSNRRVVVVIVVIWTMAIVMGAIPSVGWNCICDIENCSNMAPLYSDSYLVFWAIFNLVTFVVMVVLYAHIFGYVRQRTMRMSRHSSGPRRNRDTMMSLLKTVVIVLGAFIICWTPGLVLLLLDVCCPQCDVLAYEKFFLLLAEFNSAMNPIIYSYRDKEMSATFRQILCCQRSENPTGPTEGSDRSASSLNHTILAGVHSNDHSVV

This assay addresses T1, LPA1R (Homo sapiens, UniProt Q92633).
T1 construct: host or cells: LPA1R expressing cells (Millipore, GPCR Profiler)
Briefly: LPA1R Ca2+ flux functional assay (antagonist mode, FLIPR). As to conditions: inhibition of LPA-stimulated Ca2+ flux, LPA at EC80, LPA1R expressing cells (Millipore); read-out: LPA1 R Antagonist Activity. It is filed as cell-based. On the procedure:
Inhibition of LPA-stimulated Ca^2+ flux was used to assess compound potency using FLIPR technology in a 96 well plate format. The assay buffer used was a modified Hanks Balanced Salt Solution (HBSS) where HBSS was supplemented to contain 20 mM HEPES and 2.5 mM Probenecid at pH7.4 (Millipore, GPCR Profiler®). LPA1R expressing cells (Millipore) were plated and prepared 24 hours prior to assay of test articles. Ca^2+ ion flux was assessed from fluorescence of a Fluo-based No Wash Ca^2+ dye. Antagonist data are generated from plates with LPA concentrations sufficient to generate 80% efficacy [EC80]. Percentage inhibition was calculated from a reduction of efficacy according to concentration of compounds of Formula I-VI. For dose responses the inhibition data was used to calculate compound IC50. The agonist assay was conducted on a FLIPR^TETRA instrument where the test compound(s), vehicle controls, and reference agonist were added to the assay plate after a fluorescence baseline was established. The agonist assay was a total of 180 seconds and was used to assess each compound's ability to activate each GPCR assayed. Upon completion of the agonist assay, the assay plate was removed from the FLIPR^TETRA and incubated at 25° C. for seven (7) minutes. After the incubation period, the assay plate was placed back in the FLIPR^TETRA and the antagonist assay was initiated. Using EC80 potency values determined during the agonist assay, all pre-incubated sample compound wells were challenged with EC80 concentration of reference agonist after establishment of a fluorescence baseline. The antagonist assay was conducted using the same assay plate that was used for the agonist assay. The antagonist assay was conducted on a FLIPR^TETRA instrument where 9 vehicle controls and EC80 concentration of reference agonist were added to appropriate wells. The antagonist assay was a total of 180 seconds and was used to assess each compound's ability to inhibit each GPCR assayed. All assay plate data were subjected to appropriate baseline corrections. After baseline corrections were applied, maximum fluorescence values were exported and data processed to calculate percentage activation (relative to Emax reference agonist and vehicle control values), percentage inhibition (relative to EC80 and vehicle control values), and additional statistical values (i.e. Z′, percentage variation between replicate data values) to assess the quality of each plate. Where assay plate data were rejected, additional experiments were conducted. All dose response curves were generated using GraphPad Prism. The curves were fit by utilizing “Sigmoidal Dose Response (Variable Slope)” equation where the bottom parameter was fixed to “0.” Where appropriate, the top parameter was fixed to “100” to better predict potency values when a full curve was not generated by the concentrations assayed.
For `Cc1noc(-c2ccc(C(=O)N[C@H](Cc3ccc(Br)cc3)C(=O)O)cc2)c1NC(=O)O[C@H](C)c1ccccc1Cl` [Example 25, (R)-3-(4-Bromo-phenyl)-2-(4-{4-[(R)-1-(2-chloro-phenyl)-ethoxycarbonylamino]-3-methyl-isoxazol-5-yl}-benzoylamino)-propionic Acid], the pIC50 is above 6.52.
In the case of `Cc1noc(-c2ccc(C(=O)N[C@H](Cc3ccccc3F)C(=O)O)cc2)c1NC(=O)O[C@H](C)c1ccccc1Cl` [Example 26, (R)-2-(4-{4-[(R)-1-(2-Chloro-phenyl)-ethoxycarbonylamino]-3-methyl-isoxazol-5-yl}-benzoylamino)-3-(2-fluoro-phenyl)-propionic Acid] it was above 6.52; in that of `Cc1ccc(C[C@@H](NC(=O)c2ccc(-c3onc(C)c3NC(=O)O[C@H](C)c3ccccc3Cl)cc2)C(=O)O)cc1` [Example 27, (R)-2-(4-{4-[(R)-1-(2-Chloro-phenyl)-ethoxycarbonylamino]-3-methyl-isoxazol-5-yl}-benzoylamino)-3-p-tolyl-propionic Acid], above 6.52.
In the case of `Cc1noc(-c2ccc(C(=O)N[C@H](Cc3ccc(C(F)(F)F)cc3)C(=O)O)cc2)c1NC(=O)O[C@H](C)c1ccccc1Cl` [Example 28, (R)-2-(4-{4-[(R)-1-(2-Chloro-phenyl)-ethoxycarbonylamino]-3-methyl-isoxazol-5-yl}-benzoylamino)-3-(4-trifluoromethyl-phenyl)-propionic Acid] it was above 6.52; in that of `Cc1noc(-c2ccc(C(=O)N[C@H](Cc3ccc(C#N)cc3)C(=O)O)cc2)c1NC(=O)O[C@H](C)c1ccccc1Cl` [Example 29, (R)-2-(4-{4-[(R)-1-(2-Chloro-phenyl)-ethoxycarbonylamino]-3-methyl-isoxazol-5-yl}-benzoylamino)-3-(4-cyano-phenyl)-propionic Acid], 4.30 to 6.00; in that of `Cc1cnn(-c2ccc(C(=O)N[C@H](Cc3ccccc3)C(=O)O)cc2)c1NC(=O)O[C@H](C)c1ccccc1Cl` [Example 30, (R)-2-(4-{5-[(R)-1-(2-Chloro-phenyl)-ethoxycarbonylamino]-4-methyl-pyrazol-1-yl}-benzoylamino)-3-phenyl-propionic Acid], < 4.30 and 4.30 to 6.00.
The value for `Cc1noc(-c2ccc(CN[C@H](Cc3ccccc3)C(=O)O)cc2)c1NC(=O)O[C@H](C)c1ccccc1` [Example 31, (R)-2-{4-[3-Methyl-4-((R)-1-phenyl-ethoxycarbonylamino)-isoxazol-5-yl]-benzylamino}-3-phenyl-propionic Acid] was above 6.52; that for `Cc1noc(-c2ccc(CN[C@H](Cc3ccccc3F)C(=O)O)cc2)c1NC(=O)O[C@H](C)c1ccccc1` [Example 32, (R)-3-(2-Fluoro-phenyl)-2-{4-[3-methyl-4-((R)-1-phenyl-ethoxycarbonylamino)-isoxazol-5-yl]-benzylamino}-propionic Acid] was above 6.52; that for `Cc1noc(-c2ccc(CN[C@H](Cc3ccc(C(F)(F)F)cc3)C(=O)O)cc2)c1NC(=O)O[C@H](C)c1ccccc1` [Example 33, (R)-2-{4-[3-Methyl-4-((R)-1-phenyl-ethoxycarbonylamino)-isoxazol-5-yl]-benzylamino}-3-(4-trifluoromethyl-phenyl)-propionic Acid] was above 6.52.
For `Cc1noc(-c2ccc(CN[C@H](CC3CC3)C(=O)O)cc2)c1NC(=O)O[C@H](C)c1ccccc1` [Example 34, (R)-3-Cyclopropyl-2-{4-[3-methyl-4-((R)-1-phenyl-ethoxycarbonylamino)-isoxazol-5-yl]-benzylamino}-propionic acid], the pIC50 was above 6.52.
The value for `Cc1noc(-c2ccc(CN[C@H](Cc3ccccc3Cl)C(=O)O)cc2)c1NC(=O)O[C@H](C)c1ccccc1` [Example 35, (R)-3-(2-Chloro-phenyl)-2-{4-[3-methyl-4-((R)-1-phenyl-ethoxycarbonylamino)-isoxazol-5-yl]-benzylamino}-propionic Acid] was above 6.52.
In the case of `Cc1noc(-c2ccc(CN[C@H](Cc3ccc(Cl)cc3)C(=O)O)cc2)c1NC(=O)O[C@H](C)c1ccccc1` [Example 36, (R)-3-(4-Chloro-phenyl)-2-{4-[3-methyl-4-((R)-1-phenyl-ethoxycarbonylamino)-isoxazol-5-yl]-benzylamino}-propionic Acid] it was above 6.52.
As to `Cc1noc(-c2ccc(CN[C@H](Cc3ccccc3)C(=O)O)cc2)c1NC(=O)O[C@H](C)c1ccccc1Cl` [Example 37, (R)-2-(4-{4-[(R)-1-(2-Chloro-phenyl)-ethoxycarbonylamino]-3-methyl-isoxazol-5-yl}-benzylamino)-3-phenyl-propionic Acid], the pIC50 is above 6.52.
The value for `Cc1noc(-c2ccc(CNC(Cc3ccccc3F)C(=O)O)cc2)c1NC(=O)OC(C)c1ccccc1Cl` [Example 38, (R)-2-(4-{4-[(R)_1-(2-Chloro-phenyl)-ethoxycarbonylamino]-3-methyl-isoxazol-5-yl}-benzylamino)-3-(2-fluoro-phenyl)-propionic Acid] was above 6.52; that for `Cc1noc(-c2ccc(CN[C@H](Cc3ccc(C(F)(F)F)cc3)C(=O)O)cc2)c1NC(=O)O[C@H](C)c1ccccc1Cl` [Example 39, (R)-2-(4-{4-[(R)-1-(2-Chloro-phenyl)-ethoxycarbonylamino]-3-methyl-isoxazol-5-yl}-benzylamino)-3-(4-trifluoromethyl-phenyl)-propionic Acid] was above 6.52.
For the compound `Cc1noc(-c2ccc(CN[C@H](Cc3ccccc3Cl)C(=O)O)cc2)c1NC(=O)O[C@H](C)c1ccccc1Cl` [Example 40, (R)-3-(2-Chloro-phenyl)-2-(4-{4-[(R)-1-(2-chloro-phenyl)-ethoxycarbonylamino]-3-methyl-isoxazol-5-yl}-benzylamino)-propionic Acid], the pIC50 is above 6.52.
The value for `Cc1noc(-c2ccc(CN[C@H](CC3CC3)C(=O)O)cc2)c1NC(=O)O[C@H](C)c1ccccc1Cl` [Example 41, (R)-2-(4-{4-[(R)-1-(2-Chloro-phenyl)-ethoxycarbonylamino]-3-methyl-isoxazol-5-yl}-benzylamino)-3-cyclopropyl-propionic Acid] was above 6.52; that for `Cc1noc(-c2ccc(COC(Cc3ccccc3)C(=O)O)cc2)c1NC(=O)O[C@H](C)c1ccccc1` (stereo partly drawn) [Example 42, 2-{4-[3-Methyl-4-((R)-1-phenyl-ethoxycarbonylamino)-isoxazol-5-yl]-benzyloxy}-3-phenyl-propionic Acid] was above 6.52; that for `Cc1noc(-c2ccc(COC(Cc3ccccc3)C(=O)O)cc2)c1NC(=O)O[C@H](C)c1ccccc1` (stereo partly drawn) [Example 43, 2-{4-[3-Methyl-4-((R)-1-phenyl-ethoxycarbonylamino)-isoxazol-5-yl]-benzyloxy}-3-phenyl-propionic Acid] was 6.00 to 6.52.
Regarding `CC(OC(=O)Nc1c(C#N)cnn1-c1ccc(-c2ccc(CC(=O)O)cc2)cc1)c1ccccc1Cl` (stereo not drawn) [Example 46, 2-[4-[4-[5-[1-(2-chlorophenyl)ethoxycarbonylamino]-4-cyano-pyrazol-1-yl]phenyl]phenyl]acetic Acid], the pIC50 was 4.30 to 6.00.
In the case of `Cc1c(NC(=O)O[C@H](C)c2ccccc2)c(-c2ccc(-c3ccc(C4(C(=O)O)CC4)cc3)cc2)nn1C` [Example 47, (R)-1-[4-[4-[1,5-dimethyl-4-(1-phenylethoxycarbonylamino)pyrazol-3-yl]phenyl]phenyl]cyclopropane Carboxylic Acid] it was 6.00 to 6.52; in that of `Cc1nn(C)c(-c2ccc(-c3ccc(C4(C(=O)O)CC4)cc3)cc2)c1NC(=O)O[C@H](C)c1ccccc1` [Example 48, (R)-1-[4-[4-[2,5-dimethyl-4-(1-phenylethoxycarbonylamino)pyrazol-3-yl]phenyl]phenyl]cyclopropane Carboxylic Acid], 4.30 to 6.00; in that of `C[C@@H](OC(=O)Nc1c(F)cnn1-c1ccc(-c2ccc(C3(C(=O)O)CC3)c(F)c2)cc1)c1ccccc1Cl` [Example 49, (R)-1-(4′-{5-[1-(2-Chloro-phenyl)-ethoxycarbonylamino]-4-fluoro-pyrazol-1-yl}-3-fluoro-biphenyl-4-yl)-cyclopropanecarboxylic Acid], above 6.52.
In the case of `C[C@@H](OC(=O)Nc1c(F)cnn1-c1ccc(-c2ccc(C3(C(=O)O)CC3)cc2F)cc1)c1ccccc1Cl` [Example 50, (R)-1-(4′-{5-[1-(2-Chloro-phenyl)-ethoxycarbonylamino]-4-fluoro-pyrazol-1-yl}-2-fluoro-biphenyl-4-yl)-cyclopropanecarboxylic Acid] it was above 6.52.
